Test system: CD1 female mouse brain lipidome
Experiment: Brain-region lipid levels (HPLC/MS/MS lipidomics) 2 h after single i.p. 3 mg/kg CP 55,940 vs vehicle
Format: in vivo
Procedure: The Bloomington Institutional Animal Care and Use Committee of Indiana University reviewed and approved the animal procedures. Female mice from the CD1 strain were utilized to match our study examining THC’s effects on the brain lipidome ([Leishman et al., 2018]). Mice were given a single i.p. injection of either 3 mg/kg CP or 1:1:18 cremophor:ethanol:saline vehicle (please refer to the section “3 mg/kg CP Is Relevant for Synthetic Cannabinoid Abuse and Has Stronger Effects on the Female Mouse Brain Lipidome During Adolescence” for a justification of dose and use of female mice). Three different age groups were given injections: PND 35 and PND 50 adolescents, and adult mice (PND 113). At least eight mice in each age group received CP and at least eight received vehicle. Matching the THC study time course ([Leishman et al., 2018]), mice were sacrificed via rapid decapitation 2 h after injection. Brains were immediately removed and flash-frozen in liquid nitrogen, and then stored at -80°C until dissections were performed. Brains were dissected on an ice-cold dissection plate into the following regions: STR, HIPP, CER, THAL, CTX, HYP, MID, and STEM. These abbreviations for these brain areas will be used exclusively when discussing the results generated by these specific dissections. Each dissected area was immediately placed in liquid nitrogen and then stored at -80°C until used for lipid extraction.
Tissue extracts were performed as previously described ([Bradshaw et al., 2006]; [Stuart et al., 2013]; [Raboune et al., 2014]; [Leishman et al., 2016a],[b], [2017], [2018]). First, samples were shock frozen in liquid nitrogen, weighed, and transferred to a centrifuge tube. The mass of the largest sample was multiplied by 50 to determine how many milliliters of HPLC-grade methanol (Fisher, Fair Lawn, NJ, United States) to add. Then, samples were spiked with 500 pmol deuterium-labeled NAGly (d8NAGly; Cayman Chemical, Ann Arbor, MI, United States). Samples were placed on ice in darkness for 2 h then individually homogenized and centrifuged at 19,000 × g for 20 min at 20°C. Supernatants were diluted with HPLC water (purified in house) to make a solution of 75% water, 25% supernatant. Lipids were partially purified on C18 solid phase extraction columns (Agilent, Palo Alto, CA, United States). A series of four elutions with 1.5 mL of 60%, 75%, 85%, and 100% methanol were collected ([Stuart et al., 2013]; [Leishman et al., 2016a],[b], [2018]).
As previously described ([Bradshaw et al., 2006]; [Tan et al., 2006]; [Smoum et al., 2010]; [Stuart et al., 2013]; [Tortoriello et al., 2013]; [Raboune et al., 2014]; [Leishman et al., 2016a],[b], [2017], [2018]), samples were analyzed using an Applied Biosystems API 3000 triple quadrupole mass spectrometer with electrospray ionization (Foster City, CA, United States). Using an Agilent XDB-C18 reversed phase analytical column and optimized mobile phase gradients, 20 μL from each elution were chromatographed. Two Shimadzu 10ADvp pumps (Columbia, MD, United States) provided the pressure for gradient elution. Mobile phase A: 20% methanol, 80% water (v/v) and 1 mM ammonium acetate (Sigma, St. Louis, MO, United States). Mobile phase B: 100% methanol, 1 mM ammonium acetate. Every method run began with 0% mobile phase B, reached 100% mobile phase B flowing at 0.2 mL/min, and gradually returned to 0% mobile phase B.
This screening library will be referred to as the lipidome when discussing data from this study. HPLC/MS/MS data were analyzed using Analyst software (Applied Biosystems) ([Bradshaw et al., 2006]; [Tan et al., 2006]; [Stuart et al., 2013]; [Tortoriello et al., 2013]; [Raboune et al., 2014]; [Leishman et al., 2016a],[b], [2017], [2018]). Chromatograms (Supplementary Figure 3) were generated by determining the retention time of analytes from the analytical column with a [M-1] or [M+1] parent peak and a fragmentation peak corresponding to the programmed values. […]

## CCCCCCC(C)(C)c1ccc([C@@H]2C[C@H](O)CC[C@H]2CCCO)c(O)c1 [CP 55,940]
PND 35
  total changes in lipid levels across the eight regions: 231
PND 35, eight regions
  changes in lipid levels that were decreases: 152
PND 35 CER
  2-arachidonoyl glycerol level vs vehicle: ↓ (1-1.49 times lower than vehicle)
  2-linoleoyl glycerol level vs vehicle: ↓ (1-1.49 times lower than vehicle)
  6-ketoPGF1α level vs vehicle: ↓↓ (1.50-1.99 times lower than vehicle)
  Arachidonic acid level vs vehicle: ↓ (1-1.49 times lower than vehicle)
  N-arachidonoyl GABA level vs vehicle: ↓ (1-1.49 times lower than vehicle)
  N-arachidonoyl alanine level vs vehicle: ↓ (1-1.49 times lower than vehicle)
  N-arachidonoyl glycine level vs vehicle: ↓ (1-1.49 times lower than vehicle)
  N-arachidonoyl methionine level vs vehicle: ↓↓ (1.50-1.99 times lower than vehicle)
  N-arachidonoyl serine level vs vehicle: ↓ (1-1.49 times lower than vehicle)
  N-arachidonoyl taurine level vs vehicle: ↓ (1-1.49 times lower than vehicle)
  N-arachidonoyl tyrosine level vs vehicle: ↓ (1-1.49 times lower than vehicle)
  N-docosahexaenoyl GABA level vs vehicle: ↓ (1-1.49 times lower than vehicle)
  N-docosahexaenoyl alanine level vs vehicle: ↓ (1-1.49 times lower than vehicle)
  N-docosahexaenoyl glycine level vs vehicle: ↓ (1-1.49 times lower than vehicle)
  N-docosahexaenoyl leucine level vs vehicle: ↑ (1-1.49 times higher than vehicle)
  N-docosahexaenoyl serine level vs vehicle: ↓ (1-1.49 times lower than vehicle)
  N-docosahexaenoyl tyrosine level vs vehicle: ↓ (1-1.49 times lower than vehicle)
  N-linoleoyl glycine level vs vehicle: ↓ (1-1.49 times lower than vehicle)
  N-linoleoyl leucine level vs vehicle: ↑ (1-1.49 times higher than vehicle)
  N-linoleoyl phenylalanine level vs vehicle: ↑ (1-1.49 times higher than vehicle)
  N-oleoyl GABA level vs vehicle: ↓ (1-1.49 times lower than vehicle)
  N-oleoyl ethanolamine level vs vehicle: ↓ (1-1.49 times lower than vehicle)
  N-oleoyl leucine level vs vehicle: ↑ (1-1.49 times higher than vehicle)
  N-oleoyl phenylalanine level vs vehicle: ↑ (1-1.49 times higher than vehicle)
  N-palmitoyl leucine level vs vehicle: ↑↑ (1.50-1.99 times higher than vehicle)
  N-palmitoyl phenylalanine level vs vehicle: ↑ (1-1.49 times higher than vehicle)
  N-palmitoyl proline level vs vehicle: ↓ (1-1.49 times lower than vehicle)
  N-palmitoyl serine level vs vehicle: ↓ (1-1.49 times lower than vehicle)
  N-palmitoyl tyrosine level vs vehicle: ↑ (1-1.49 times higher than vehicle)
  N-palmitoyl valine level vs vehicle: ↑↑ (1.50-1.99 times higher than vehicle)
PND 35 CTX
  2-palmitoyl glycerol level vs vehicle: ↑↑ (1.50-1.99 times higher than vehicle)
  6-ketoPGF1α level vs vehicle: ↓ (1-1.49 times lower than vehicle)
  N- stearoyl valine level vs vehicle: ↑ (1-1.49 times higher than vehicle)
  N-arachidonoyl GABA level vs vehicle: ↓ (1-1.49 times lower than vehicle)
  N-arachidonoyl alanine level vs vehicle: ↓ (1-1.49 times lower than vehicle)
  N-arachidonoyl glycine level vs vehicle: ↓ (1-1.49 times lower than vehicle)
  N-arachidonoyl methionine level vs vehicle: ↓↓ (1.50-1.99 times lower than vehicle)
  N-arachidonoyl phenylalanine level vs vehicle: ↓ (1-1.49 times lower than vehicle)
  N-arachidonoyl serine level vs vehicle: ↓ (1-1.49 times lower than vehicle)
  N-arachidonoyl taurine level vs vehicle: ↓ (1-1.49 times lower than vehicle)
  N-arachidonoyl tyrosine level vs vehicle: ↓ (1-1.49 times lower than vehicle)
  N-docosahexaenoyl GABA level vs vehicle: ↓ (1-1.49 times lower than vehicle)
  N-docosahexaenoyl glycine level vs vehicle: ↓ (1-1.49 times lower than vehicle)
  N-docosahexaenoyl leucine level vs vehicle: ↑↑ (1.50-1.99 times higher than vehicle)
  N-docosahexaenoyl serine level vs vehicle: ↓↓ (1.50-1.99 times lower than vehicle)
  N-docosahexaenoyl valine level vs vehicle: ↑ (1-1.49 times higher than vehicle)
  N-linoleoyl GABA level vs vehicle: ↓ (1-1.49 times lower than vehicle)
  N-linoleoyl glycine level vs vehicle: ↓ (1-1.49 times lower than vehicle)
  N-oleoyl GABA level vs vehicle: ↓ (1-1.49 times lower than vehicle)
  N-oleoyl alanine level vs vehicle: ↓ (1-1.49 times lower than vehicle)
  N-oleoyl glycine level vs vehicle: ↓ (1-1.49 times lower than vehicle)
  N-oleoyl leucine level vs vehicle: ↑ (1-1.49 times higher than vehicle)
  N-oleoyl methionine level vs vehicle: ↓ (1-1.49 times lower than vehicle)
  N-oleoyl valine level vs vehicle: ↑ (1-1.49 times higher than vehicle)
  N-palmitoyl leucine level vs vehicle: ↑↑ (1.50-1.99 times higher than vehicle)
  N-palmitoyl serine level vs vehicle: ↓ (1-1.49 times lower than vehicle)
  N-palmitoyl tyrosine level vs vehicle: ↑ (1-1.49 times higher than vehicle)
  N-palmitoyl valine level vs vehicle: ↑↑ (1.50-1.99 times higher than vehicle)
  N-stearoyl serine level vs vehicle: ↓ (1-1.49 times lower than vehicle)
  N-stearoyl tyrosine level vs vehicle: ↑ (1-1.49 times higher than vehicle)
  PGF2α level vs vehicle: ↑ (1-1.49 times higher than vehicle)
  phosphoLEA level vs vehicle: ↑↑ (1.50-1.99 times higher than vehicle)
PND 35 HIPP
  2-arachidonoyl glycerol level vs vehicle: ↓ (1-1.49 times lower than vehicle)
  2-linoleoyl glycerol level vs vehicle: ↓↓ (1.50-1.99 times lower than vehicle)
  2-oleoyl glycerol level vs vehicle: ↓ (1-1.49 times lower than vehicle)
  6-ketoPGF1α level vs vehicle: ↑ (1-1.49 times higher than vehicle)
  Arachidonic acid level vs vehicle: ↓ (1-1.49 times lower than vehicle)
  Linoleic acid level vs vehicle: ↓ (1-1.49 times lower than vehicle)
  N- stearoyl valine level vs vehicle: ↑ (1-1.49 times higher than vehicle)
  N-arachidonoyl GABA level vs vehicle: ↓↓ (1.50-1.99 times lower than vehicle)
  N-arachidonoyl alanine level vs vehicle: ↓ (1-1.49 times lower than vehicle)
  N-arachidonoyl ethanolamine level vs vehicle: ↓ (1-1.49 times lower than vehicle)
  N-arachidonoyl glycine level vs vehicle: ↓ (1-1.49 times lower than vehicle)
  N-arachidonoyl phenylalanine level vs vehicle: ↓ (1-1.49 times lower than vehicle)
  N-arachidonoyl serine level vs vehicle: ↓↓↓ (2-2.99 times lower than vehicle)
  N-arachidonoyl taurine level vs vehicle: ↓ (1-1.49 times lower than vehicle)
  N-docosahexaenoyl GABA level vs vehicle: ↓↓ (1.50-1.99 times lower than vehicle)
  N-docosahexaenoyl alanine level vs vehicle: ↓ (1-1.49 times lower than vehicle)
  N-docosahexaenoyl ethanolamine level vs vehicle: ↓ (1-1.49 times lower than vehicle)
  N-docosahexaenoyl glycine level vs vehicle: ↓ (1-1.49 times lower than vehicle)
  N-docosahexaenoyl leucine level vs vehicle: ↑ (1-1.49 times higher than vehicle)
  N-docosahexaenoyl serine level vs vehicle: ↓ (1-1.49 times lower than vehicle)
  N-linoleoyl GABA level vs vehicle: ↓↓ (1.50-1.99 times lower than vehicle)
  N-linoleoyl alanine level vs vehicle: ↓ (1-1.49 times lower than vehicle)
  N-oleoyl GABA level vs vehicle: ↓↓ (1.50-1.99 times lower than vehicle)
  N-oleoyl alanine level vs vehicle: ↓ (1-1.49 times lower than vehicle)
  N-oleoyl ethanolamine level vs vehicle: ↓ (1-1.49 times lower than vehicle)
  N-oleoyl glycine level vs vehicle: ↓ (1-1.49 times lower than vehicle)
  N-oleoyl methionine level vs vehicle: ↓ (1-1.49 times lower than vehicle)
  N-oleoyl valine level vs vehicle: ↑ (1-1.49 times higher than vehicle)
  N-palmitoyl alanine level vs vehicle: ↓ (1-1.49 times lower than vehicle)
  N-palmitoyl ethanolamine level vs vehicle: ↓ (1-1.49 times lower than vehicle)
  N-palmitoyl leucine level vs vehicle: ↑ (1-1.49 times higher than vehicle)
  N-palmitoyl phenylalanine level vs vehicle: ↑ (1-1.49 times higher than vehicle)
  N-palmitoyl tyrosine level vs vehicle: ↑ (1-1.49 times higher than vehicle)
  N-palmitoyl valine level vs vehicle: ↑ (1-1.49 times higher than vehicle)
  N-stearoyl GABA level vs vehicle: ↓ (1-1.49 times lower than vehicle)
  N-stearoyl alanine level vs vehicle: ↓ (1-1.49 times lower than vehicle)
  N-stearoyl glycine level vs vehicle: ↓ (1-1.49 times lower than vehicle)
  Oleic Acid level vs vehicle: ↓ (1-1.49 times lower than vehicle)
